PMC4821105 (Pharmacognosy Research, 2016)

Key:
[1] = target: T1, PTP1B (Homo sapiens, UniProt P18031); test: Protein tyrosine phosphatase 1B inhibitory activity; type: biochemical
T1 sequence (P18031 1-435): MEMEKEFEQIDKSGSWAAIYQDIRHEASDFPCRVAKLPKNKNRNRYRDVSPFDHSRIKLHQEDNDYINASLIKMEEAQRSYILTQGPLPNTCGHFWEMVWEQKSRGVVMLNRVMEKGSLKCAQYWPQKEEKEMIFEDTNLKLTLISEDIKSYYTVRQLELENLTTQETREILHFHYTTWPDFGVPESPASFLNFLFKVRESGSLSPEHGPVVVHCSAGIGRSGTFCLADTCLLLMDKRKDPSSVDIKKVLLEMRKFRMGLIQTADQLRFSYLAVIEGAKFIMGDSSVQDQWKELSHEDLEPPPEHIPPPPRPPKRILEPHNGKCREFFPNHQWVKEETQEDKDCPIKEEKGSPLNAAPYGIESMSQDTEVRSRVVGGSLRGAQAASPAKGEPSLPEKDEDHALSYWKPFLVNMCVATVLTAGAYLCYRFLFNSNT

[2] = target: T2, TCPTP (Homo sapiens, UniProt P17706); test: T-cell protein tyrosine phosphatase inhibitory activity; type: biochemical
T2 sequence (P17706 1-415): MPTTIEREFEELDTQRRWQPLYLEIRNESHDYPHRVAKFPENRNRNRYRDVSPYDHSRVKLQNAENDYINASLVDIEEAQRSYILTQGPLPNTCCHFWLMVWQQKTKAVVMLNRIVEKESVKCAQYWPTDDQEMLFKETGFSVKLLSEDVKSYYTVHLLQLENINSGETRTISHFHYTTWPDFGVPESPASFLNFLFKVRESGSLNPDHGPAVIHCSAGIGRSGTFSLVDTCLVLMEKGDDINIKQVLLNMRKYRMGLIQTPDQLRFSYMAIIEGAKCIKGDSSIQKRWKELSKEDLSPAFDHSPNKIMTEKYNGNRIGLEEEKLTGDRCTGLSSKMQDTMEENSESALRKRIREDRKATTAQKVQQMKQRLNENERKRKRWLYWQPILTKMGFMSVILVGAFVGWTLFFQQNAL

[3] = target: T1, PTP1B; details: previous study of 28 medicinal plants; cited from earlier work

IC50 [1] [µM] | inhibition at 10 µg/mL ([1]; read-out: PTP1B inhibited activity (%), 10 μg/mL, mean of triplicate) [%] | IC50 [2] [µM] | PTP1B (IC50, μg/mL) ([1]; pNPP 2 mM, 37°C, 30 min) [µg/mL] | Compound | PTP1B IC50 (previous screening of Indonesian herbal medicines) [3] [µg/mL]
3.28 | 98 | 5.25 | – | C=C(C)[C@@H]1CC[C@]2(C(=O)O)CC[C@]3(C)[C@H](CC[C@@H]4[C@@]5(C)CC[C@H](O)C(C)(C)[C@@H]5CC[C@]43C)[C@@H]12 [Compound 1, Betulinic acid] | –
– | – | 6.79 | – | C[C@H]1[C@H](C)CC[C@]2(C(=O)O)CC[C@]3(C)C(=CC[C@@H]4[C@@]5(C)CC[C@H](O)C(C)(C)[C@@H]5CC[C@]43C)[C@H]12 [Compound 2, ursolic acid] | –
– | – | – | 2.05 | CCCCCCCCCCCCCCCC(=O)C1=C(O)C(CO)OC1=O (stereo not drawn) [RK-682, reference compound] | 2.05
